Reference: patent EP0846119B1, “THIENOPYRIMIDINE DERIVATIVES, THEIR PRODUCTION AND USE AS ENDOTHELIN ANTAGONISTS” (Takeda Chemical Industries, Ltd., priority 1995, dated 1997)
Where two headings read alike, the source gives them in different places.

Experiments:
[1] = biological target: T1, human ETB endothelin receptor (Homo sapiens, UniProt P24530); assay: Binding Test to ETB receptor expressed in CHO cell (ET-1-stimulated [3H]arachidonic acid release); type: cell-based; conditions: CHO cell expressing human ETB (ETB 12 cells), final concentration of ET-1 6.3x10^-10M, n=2
T1 construct: expressed in transfected cells; host or cells: CHO cells (clone ETB 12)
T1 sequence (P24530 27-442): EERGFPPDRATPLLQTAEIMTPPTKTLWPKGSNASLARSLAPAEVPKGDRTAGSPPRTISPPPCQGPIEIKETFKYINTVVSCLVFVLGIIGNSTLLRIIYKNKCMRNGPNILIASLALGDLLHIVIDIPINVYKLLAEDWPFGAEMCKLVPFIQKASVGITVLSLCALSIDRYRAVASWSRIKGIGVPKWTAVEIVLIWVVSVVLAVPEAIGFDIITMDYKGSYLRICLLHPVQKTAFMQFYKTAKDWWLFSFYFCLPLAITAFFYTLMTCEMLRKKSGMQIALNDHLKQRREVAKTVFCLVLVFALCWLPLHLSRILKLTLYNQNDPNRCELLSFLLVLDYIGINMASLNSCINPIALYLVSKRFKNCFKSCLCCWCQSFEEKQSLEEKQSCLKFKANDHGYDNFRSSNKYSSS
Procedure: Binding Test to ETB receptor expressed in CHO cell:
cells: CHO cell expressing human ETB endothelin receptor, i.e. ETB 12 cells medium: DMEM 10% FCS Gln, nonessential amino acids, penicillin, streptomycin
Cells were seeded in 12 wells of 24 well plates at a density of 2x10^5 cells/well (1 ml medium/well). On the next day, [^3H]arachidonic acid was added to each well to be 250 nCi(nanocurie)/ml. On the next day, the medium was sucked from the wells by the use of an aspirator to remove free arachidonic acid and floating cells, and then 0.5 ml of medium was added. This procedure was repeated agian. After allowing to stand for 30minutes in a CO2 incubator, the medium was exchanged rapidly.
The sample of compound obtained in Example 5 or compound 16 of Example 11 was stepwise diluted with a buffer solution for dilution, containing 3.15x10^-8M endothelin-1 (ET-1) {20 mM Tris, 5mM Mg(AcO)2, 2 mM EGTA, 0.03% NaN3, 0.1% BSA, 0.05% CHAPS}. 10 µl of the solution was added to each well (final concentration of ET-1: 6.3x10^-10M). […] After allowing to-stand for 30 minutes in the CO2 incubator, the medium was completely collected and the radio activity of [^3H]arachidonic acid released in the medium was measured by a liquid scintillation counter. IC50 values were calculated by Hill Plot from the concentration and relative reaction value of each sample.

[2] = biological target: T2, human endothelin-A (ETA) receptors (Homo sapiens, UniProt P25101); assay: Binding Test to ETA receptor expressed in an insect cell Sf9 ([125I]endothelin-1 displacement)
T2 construct: made in house; host or cells: Sf9 insect cells (membrane fractions)
T2 sequence (P25101 21-427): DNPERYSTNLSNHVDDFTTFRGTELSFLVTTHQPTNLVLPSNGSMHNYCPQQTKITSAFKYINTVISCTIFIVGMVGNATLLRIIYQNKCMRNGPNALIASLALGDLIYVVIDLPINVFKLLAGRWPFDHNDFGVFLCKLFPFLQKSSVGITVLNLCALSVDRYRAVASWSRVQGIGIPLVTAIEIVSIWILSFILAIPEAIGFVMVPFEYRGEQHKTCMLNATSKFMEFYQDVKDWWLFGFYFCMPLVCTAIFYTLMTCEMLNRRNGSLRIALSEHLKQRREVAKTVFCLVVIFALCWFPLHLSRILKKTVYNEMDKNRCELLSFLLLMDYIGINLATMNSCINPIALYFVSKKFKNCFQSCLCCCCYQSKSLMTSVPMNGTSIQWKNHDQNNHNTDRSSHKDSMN
Procedure: Binding Test to ETA receptor expressed in an insect cell Sf9:
Endothelin (ET) receptors were prepared by diluting fractions of insect cell (Sf9) membrane having human endothelin-A (ETA) receptors expressed, with an assay buffer {20 mM Tris-HCl, 2 mM EGTA (ethyleneglycol bls(2-aminoethylether) tetra acetic acid), 5 mM magnesium acetate, 0.1% BSA (bovine serum albumin), 0.03% NaN3, 0.5 mM PMSF (phenyl methyl sulfonyl fluoride), 20 µg/ml leupeptin, 4 µg/ml E-64 (products of the Peptide Institute, Japan), 1 µg/ml pepstatin, (pH 7.2)} respectively in a concentration of 1.4 µg/ml in the former case and 0.7 µg/ml in the latte case.
To 100 µl of each portion was added 5 nM[^125I] endothelin-1 (2 µl). A dimethylsulfoxide solution (3 µl) of the test compound was added thereto and incubated at 25°C for 60 minutes.
And, to determine the maximum binding amount (B0) and non-specific binding amount (NSB), lots to which a dimethyl sulfoxide solution (3 µl) or a dimethyl sulfoxide solution (3 µl) containing endothelin-1 (10^-3M) had been added, were also incubated.
These lots were supplemented with 0.05% CHAPS(3-[(3-chloroamidopropyl)dimethylammonio]-1-propanesulfonate)-assay buffer (1.5 ml), subjected to filtration through a glass fiber filter GF/F (trade name; product of Whatman Ltd. (England)), and then washed with the same buffer (1.5 ml)).
Radioactivity on the filter was counted in a gamma-counter to determine the Percent Maximum Binding (PMB) in accordance with the aforesaid calculation formula. The concentration causing PMB=50% was determined as IC50 value.

[3] = test system: coronary vein where ETB is expressed; assay: Inhibition Test on coronary vein where ETB is expressed (S6c-induced constriction of ring samples); conditions: Sus scrofa, porcine coronary vein ring, pre-treatment 30 minutes, relative to vehicle group, read-out: % inhibition (MEAN ± S.E.M.) (n=) vein (S6c 1 nM); for inhibition at 0.1 µM: compound 0.1 µM; for inhibition at 10 µM: compound 10 µM
Procedure: Inhibition Test on coronary vein where ETB is expressed:
3-mm ring samples for vehicle group and drug-treating group were prepared by removing fat and connective tissue from coronary vein enucleated from porcine heart and obtained from the adjacent portions thereof. The samples, hanging in Magnus tube filled with Krebs solution, were stabilized for 90 minutes under 0.5 g static tension. After subjecting the samples to constriction for 10 minutes by potassium chloride (KCl) (60 mM) to obtain the maximum reaction, the samples were washed and stabilized for 60 minutes. After pre-treating compound obtained in Example 5 or Compound 16 of Example 11 or vehicle (H2O) for 30 minutes, S6c (1 nM) (S6c: sarafotoxin S6c, peptide type snake toxin consisting of 21 amino acids, it is useful for the selective agonist to ETB receptor owing to the similarity of its structure to endothelin) was added to observe the maximum constriction.
The constriction efficiency (% KCl) of S6c was calculated as a relative value to KCl constriction of each sample which was regarded as 100%. Further, the inhibiting efficiency was calculated from the constriction efficiency of the drug-treating group calculated as a relative value to the constriction of the vehicle group which was regarded as 100%.

[4] = Sf9 membrane fractions, [125I]endothelin-1, 25°C, 60 minutes, concentration causing PMB=50%, read-out: IC50 value: µM Human endotherin-A receptor
[5] = Table 5, values recur in Table 7, read-out: Binding IC50 (µM) ETA

Row | Structure (SMILES) | IC50 [1] [nM] | IC50 [2, 4] [µM] | IC50 [2, 5] [µM] | inhibition at 0.1 µM [3] [%] | inhibition at 10 µM [3] [%]
1 | COCOc1ccc(-c2sc3c(c2CNS(C)(=O)=O)c(=O)n(CC(=O)O)c(=O)n3Cc2ccccc2SC)cc1 [Example 5, 2,4(1H,3H)-dioxo-6-(4-methoxymethoxyphenyl)-1-(2-methylthiobenzyl)-5-(methanesulfonamidomethyl)thieno[2,3-d]pyrimidine-3-aretic acid] | 490 | 0.011 | 0.0076 | 73.4 ± 3.1 | 100
2 | CCS(=O)(=O)NCc1c(-c2ccc(OCOC)cc2)sc2c1c(=O)n(CC(=O)O)c(=O)n2Cc1ccccc1SC [11(16), 2,4(1H,3H)-Dioxo-6-(4-methoxymethoxyphenyl)-1-(2-methylthiobenzyl)-5-(ethanesulfonamidomethyl)thieno[2,3-d]pyrimidine-3-acetic acid] | 130 | 0.0061 | 0.0061 | 53.3 ± 4.4 | 98 ± 1.1
